Here are results for one sequence from patent US20080311103A1, “Anti-Inflammatory Peptides and Methods of Use Thereof” (YEDA RESEARCH AND DEVELOPMENT CO. LTD. at THE WEIZMANN …, priority 2004, published 2008).

Assay [1] concerns mice sensitized with oxazolone. The format is in vivo, mouse. The conditions noted are these: FIG. 1; peptides by implanted osmotic pump, 0.2 μg/hour for 7 days; ear measured 24 hours after oxazolone challenge; BALB/c mice. On the procedure:
Groups of 5 female inbred BALB/c mice (The Jackson Laboratory, Bar Harbor, Me.) were sensitized on the shaved abdominal skin with 2% oxazolone (100 μl) dissolved in acetone/olive oil [4:1 (vol/vol)] applied topically. Delayed type hypersensitivity (DTH) was elicited 5 days later by challenging the mice with 0.5% oxazolone in acetone/olive oil (10 μl given topically to each side of the ear). A constant area of the ear was measured immediately before and 24 hours after the challenge using a Mitutoyo engineer's micrometer. The percent inhibition of DTH is calculated as follows:
% Inhibition=[1-{(treated−negative control)/(positive control−negative control)}]×100.
The positive control is the DTH reaction to oxazolone elicited in sensitized mice without treatment. The negative control is the background swelling produced by the oxazolone antigen in naïve non-sensitized mice.
Peptides Nos. 1-5 were given to the mice by mini perfusion pumps (alzet osmotic pump model 2001), which contained the indicated peptide (40 μg; 200 μl). The pumps were implanted under the mouse skin one day before oxazolone sensitization and they released the peptide in a rate of 1 μl per hour (0.2 μg/hour) for 7 days.
Peptides Nos. 6-10 were given to the mice by subcutaneously injection (1 μg or 10 μg per mouse), every day, starting at one day before oxazolone sensitization and ending at day 5 post DTH initiation.

A further assay concerns BALB/C mice. In words: TNBS-induced colitis model of inflammatory bowel disease (IBD). Type of assay: in vivo, mouse. The conditions noted are these: 50 μg/mouse SC daily; day 7 after TNBS. On the procedure: BALB/C mice, which were anesthetized for 5-10 min, received by intrarectal administration, 30 μl of a solution of 2,4,6-trinitrobenzene sulfonic acid (TNBS; 100 mg/kg) dissolved in 0.9% NaCl and mixed with an equal volume of ethanol (50% ethanol). Animals were killed 7 days after TNBS administration.
Wound fluid peptides were administered once daily by subcutaneous (SC) administration starting 1 day before the induction of colitis and every day for the next 7 days as follows:
Treatment with the wound fluid peptides was evaluated at day 7 by determination of macroscopic inflammation scores. The colon of each mouse was examined under a dissecting microscope to evaluate the macroscopic lesions according to the Wallace criteria. The Wallace score lists macroscopic colon lesions on a scale from 0 to 10 based on features reflecting inflammation, such as hyperemia, thickening of the bowel, and extent of ulceration (Wallace, J. L., et al. 1989, Gastroenterology, 96:29).

Consider “WDNLEKETEGL [peptide No. 3, residues 96-106 of Apo A-I; identified in wound fluids, then synthesized]”, for which, in assay [1], the “inhibition of DTH response” value was around 40%. In the assay with BALB/C mice, the “Wallace score (macroscopic inflammation score, scale 0 to 10)” value came out at 4.0±1.3.
